The results in this text go back to article PMC2577671, “Evaluation of Dimebon in cellular model of Huntington's disease” (Molecular Neurodegeneration, 2008).

Holding throughout (assay): biochemical
Parameters in all cases: MDS Pharma Lead Profiling screen, binding assays, per cent inhibition, duplicate

One test concerns the target T1, α1A-Adrenergic receptor (Rattus norvegicus, UniProt P43140).
T1 construct: gene Adra1a
How it is done: (§1) The activity of Dimebon against selected set of biochemical targets was performed by MDS Pharma Services . The Dimebon was provided to MDS Pharma as dry powder, dissolved in DMSO and tested in 10 μM concentrations. The standard Lead Profiling + CYP450 screen was performed according to MDS Pharma specifications with additional custom-chosen targets added to the screen as indicated. To further understand potential mechanisms responsible for clinical effects of Dimebon, we evaluated Dimebon against a set of selected biochemical targets. Dimebon evaluation was performed by MDS Pharma Services . The standard Lead Profiling + CYP450 screen was performed with additional custom-selected targets added to the screen. The results of the screen obtained at 10 μM of Dimebon are provided as Additional File 3. […] Low affinity (50–60% inhibition) interactions were also observed for CYP450, 2C19 receptor, voltage-gated L-type Ca^2+ channel, Dopamine D4.2 receptor, and Serotonin 5-HT1 receptor. […] Supplementary file 1750-1326-3-15-S3.pdf: Additional file 3 The results of Dimebon screening against a selected set of biochemical targets. The complete results obtained by MDS Pharma with a selected list of biochemical targets using 10 μM of Dimebon as a probe. The Cat numbers refer to the MDS Pharma Services assay specification. The receptors and species are listed. Dimebon was tested at 10 μM concentratio in duplicate. The % inhibition by Dimebon is shown numerically and graphically for each receptor. Significant targets (defined as % inhibition > 50%) are highlighted in yellow. Click here for file

In the next test the target is T2, Opiate kappa (OP2, KOP) (Homo sapiens, UniProt P41145).
T2 construct: gene OPRK1
T2 sequence (P41145 whole entry): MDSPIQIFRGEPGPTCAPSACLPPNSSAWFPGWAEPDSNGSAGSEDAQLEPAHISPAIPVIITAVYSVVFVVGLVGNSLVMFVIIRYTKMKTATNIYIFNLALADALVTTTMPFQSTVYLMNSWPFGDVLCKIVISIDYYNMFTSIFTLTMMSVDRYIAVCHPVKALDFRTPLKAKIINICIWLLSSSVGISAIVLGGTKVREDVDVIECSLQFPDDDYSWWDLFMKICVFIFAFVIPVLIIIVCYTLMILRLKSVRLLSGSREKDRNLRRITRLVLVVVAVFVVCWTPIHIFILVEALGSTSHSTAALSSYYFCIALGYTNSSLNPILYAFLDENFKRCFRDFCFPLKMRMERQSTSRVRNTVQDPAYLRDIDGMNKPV
Here is the method:
as §1

A further test has as its target T3, Opiate mu (OP3, MOP) (Homo sapiens, UniProt P35372).
T3 construct: gene OPRM1
Here is the method: as §1

In test [1] the target is T4, Serotonin 5-HT5A receptor (Homo sapiens, UniProt P47898).
T4 construct: gene HTR5A
How it is done:
as §1

Another test concerns the target T5, Prostanoid EP4 (Homo sapiens, UniProt P35408).
T5 construct: gene PTGER4
How it is done:
as §1

For the next test, the target named is T6, Melatonin MT1 (Homo sapiens, UniProt P48039).
T6 construct: gene MTNR1A
T6 sequence (P48039 whole entry): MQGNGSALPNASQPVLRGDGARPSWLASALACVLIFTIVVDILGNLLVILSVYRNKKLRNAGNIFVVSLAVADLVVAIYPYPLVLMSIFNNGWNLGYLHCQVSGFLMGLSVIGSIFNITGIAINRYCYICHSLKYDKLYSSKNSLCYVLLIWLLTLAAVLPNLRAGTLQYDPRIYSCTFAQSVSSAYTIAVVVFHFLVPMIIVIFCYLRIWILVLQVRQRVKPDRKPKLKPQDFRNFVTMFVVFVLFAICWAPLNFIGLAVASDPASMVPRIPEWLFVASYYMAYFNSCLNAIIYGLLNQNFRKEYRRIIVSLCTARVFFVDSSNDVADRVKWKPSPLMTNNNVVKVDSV
How it is done: as §1

The target in a further test is T7, Sigma 2 (Rattus norvegicus, UniProt Q5U3Y7).
T7 construct: gene Tmem97
T7 sequence (Q5U3Y7 whole entry): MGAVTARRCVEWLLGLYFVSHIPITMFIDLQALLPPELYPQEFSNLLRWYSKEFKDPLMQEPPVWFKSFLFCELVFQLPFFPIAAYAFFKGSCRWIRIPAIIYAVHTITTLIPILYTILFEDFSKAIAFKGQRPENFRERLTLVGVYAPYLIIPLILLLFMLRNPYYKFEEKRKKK
How it is done:
as §1

For the next test, the target named is T8, Tachykinin NK1 (Homo sapiens, UniProt P25103).
T8 construct: gene TACR1
T8 sequence (P25103 whole entry): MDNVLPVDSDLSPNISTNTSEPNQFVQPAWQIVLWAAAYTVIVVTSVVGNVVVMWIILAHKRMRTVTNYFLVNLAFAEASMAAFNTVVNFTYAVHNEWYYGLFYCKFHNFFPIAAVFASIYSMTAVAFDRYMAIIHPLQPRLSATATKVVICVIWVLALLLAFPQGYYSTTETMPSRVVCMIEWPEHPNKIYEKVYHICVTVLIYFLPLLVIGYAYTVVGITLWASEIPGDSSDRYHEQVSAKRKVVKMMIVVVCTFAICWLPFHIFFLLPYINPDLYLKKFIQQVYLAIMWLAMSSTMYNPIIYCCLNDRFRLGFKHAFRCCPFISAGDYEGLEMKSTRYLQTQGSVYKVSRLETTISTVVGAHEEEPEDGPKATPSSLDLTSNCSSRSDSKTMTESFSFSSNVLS
How it is done: as §1

In another test the target is T9, Adenosine A3 (Homo sapiens, UniProt P0DMS8).
T9 construct: gene ADORA3
How it is done:
as §1

In test [2] the target is T10, G Protein-Coupled Receptor GPR103 (Homo sapiens, UniProt Q96P65).
T10 construct: gene QRFPR
Here is the method: as §1

The target of a further test is T11, Adrenergic beta2 (Homo sapiens, UniProt P07550).
T11 construct: gene ADRB2
T11 sequence (P07550 whole entry): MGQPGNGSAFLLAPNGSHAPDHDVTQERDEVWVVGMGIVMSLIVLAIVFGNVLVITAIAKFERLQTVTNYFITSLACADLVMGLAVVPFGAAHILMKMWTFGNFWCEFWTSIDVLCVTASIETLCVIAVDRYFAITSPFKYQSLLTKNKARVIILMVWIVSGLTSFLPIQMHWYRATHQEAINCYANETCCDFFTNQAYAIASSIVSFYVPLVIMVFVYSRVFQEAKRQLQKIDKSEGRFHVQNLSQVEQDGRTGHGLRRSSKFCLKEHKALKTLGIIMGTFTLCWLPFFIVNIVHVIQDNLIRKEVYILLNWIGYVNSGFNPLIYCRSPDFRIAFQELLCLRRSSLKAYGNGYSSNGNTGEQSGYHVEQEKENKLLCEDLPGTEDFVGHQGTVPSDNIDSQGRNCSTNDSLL
How it is done:
as §1

Test [3] concerns the target T12, Transporter, Serotonin (SERT) (Homo sapiens, UniProt P31645).
T12 construct: gene SLC6A4
How it is done:
as §1

The target of the next test is T13, Opiate delta (OP1, DOP) (Homo sapiens, UniProt P41143).
T13 construct: gene OPRD1
T13 sequence (P41143 whole entry): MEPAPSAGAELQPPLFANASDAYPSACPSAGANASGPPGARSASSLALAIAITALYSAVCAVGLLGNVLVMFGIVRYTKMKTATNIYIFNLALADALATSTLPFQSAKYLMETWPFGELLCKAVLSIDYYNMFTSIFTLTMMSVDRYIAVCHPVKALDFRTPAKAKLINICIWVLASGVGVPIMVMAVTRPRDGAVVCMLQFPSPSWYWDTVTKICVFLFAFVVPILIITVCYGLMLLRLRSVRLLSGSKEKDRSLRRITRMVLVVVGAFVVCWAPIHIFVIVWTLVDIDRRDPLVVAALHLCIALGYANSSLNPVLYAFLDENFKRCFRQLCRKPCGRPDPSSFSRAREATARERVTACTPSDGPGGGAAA
Here is the method:
as §1

In a further test the target is T14, Bradykinin B1 (Homo sapiens, UniProt P46663).
T14 construct: gene BDKRB1
How it is done:
as §1

The next test concerns the target T15, Serotonin 5-HT1A (Homo sapiens, UniProt P08908).
T15 construct: gene HTR1A
Here is the method:
as §1

The target in the next test is T16, Serotonin 5-HT2B (Homo sapiens, UniProt P41595).
T16 construct: gene HTR2B
How it is done:
as §1

Another test addresses T17, Sigma 1 (Homo sapiens, UniProt Q99720).
T17 construct: gene SIGMAR1
Here is the method: as §1

A further test has as its target T18, Dopamine D2S receptor (Homo sapiens, UniProt P14416).
T18 construct: gene DRD2; D2S
Here is the method:
as §1

The target in the next test is T19, Serotonin 5-HT4 (Cavia porcellus, UniProt O70528).
T19 construct: gene HTR4
How it is done: as §1

A further test addresses T20, Serotonin 5-HT1B (Rattus norvegicus, UniProt P28564).
T20 construct: gene Htr1b
How it is done: as §1

For another test, the target named is T21, Dopamine D3 (Homo sapiens, UniProt P35462).
T21 construct: gene DRD3
T21 sequence (P35462 whole entry): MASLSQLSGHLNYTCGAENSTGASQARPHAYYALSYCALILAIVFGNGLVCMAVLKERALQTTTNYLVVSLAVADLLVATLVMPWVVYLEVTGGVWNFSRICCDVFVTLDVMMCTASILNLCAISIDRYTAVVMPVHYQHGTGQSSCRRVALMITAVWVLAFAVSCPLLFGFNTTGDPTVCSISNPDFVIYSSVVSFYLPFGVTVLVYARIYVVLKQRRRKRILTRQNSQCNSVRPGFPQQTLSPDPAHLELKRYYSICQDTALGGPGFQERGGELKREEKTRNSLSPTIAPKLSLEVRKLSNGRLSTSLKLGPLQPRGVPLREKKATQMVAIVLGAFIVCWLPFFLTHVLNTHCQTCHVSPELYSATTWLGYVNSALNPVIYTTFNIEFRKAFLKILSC
Here is the method:
as §1

T20 sequence (P28564 whole entry): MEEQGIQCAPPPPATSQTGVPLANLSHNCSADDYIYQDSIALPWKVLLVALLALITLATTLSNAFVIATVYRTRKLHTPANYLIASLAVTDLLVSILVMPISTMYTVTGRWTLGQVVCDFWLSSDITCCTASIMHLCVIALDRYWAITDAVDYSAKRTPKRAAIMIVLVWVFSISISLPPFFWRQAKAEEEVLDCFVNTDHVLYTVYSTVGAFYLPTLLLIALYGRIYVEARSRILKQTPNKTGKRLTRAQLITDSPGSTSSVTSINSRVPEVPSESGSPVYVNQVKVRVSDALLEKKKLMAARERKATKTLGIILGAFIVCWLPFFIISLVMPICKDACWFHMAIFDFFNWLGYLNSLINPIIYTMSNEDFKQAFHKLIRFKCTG
T12 sequence (P31645 whole entry): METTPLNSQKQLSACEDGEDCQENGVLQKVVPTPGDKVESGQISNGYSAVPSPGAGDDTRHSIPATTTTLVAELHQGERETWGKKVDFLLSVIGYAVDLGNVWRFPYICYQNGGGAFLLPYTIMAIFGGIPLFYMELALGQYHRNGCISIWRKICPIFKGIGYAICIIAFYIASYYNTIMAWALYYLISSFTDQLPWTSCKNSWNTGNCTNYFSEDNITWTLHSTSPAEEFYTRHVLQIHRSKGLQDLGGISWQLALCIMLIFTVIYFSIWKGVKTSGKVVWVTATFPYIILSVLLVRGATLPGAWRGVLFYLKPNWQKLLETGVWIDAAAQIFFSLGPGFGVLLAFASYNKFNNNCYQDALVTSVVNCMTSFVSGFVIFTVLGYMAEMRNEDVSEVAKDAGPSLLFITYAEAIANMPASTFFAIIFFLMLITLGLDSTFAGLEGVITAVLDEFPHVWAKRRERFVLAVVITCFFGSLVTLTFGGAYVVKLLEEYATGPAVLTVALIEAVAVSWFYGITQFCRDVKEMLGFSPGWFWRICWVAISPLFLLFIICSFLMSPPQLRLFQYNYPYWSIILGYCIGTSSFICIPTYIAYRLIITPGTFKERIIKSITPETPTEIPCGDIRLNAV
T5 sequence (P35408 whole entry): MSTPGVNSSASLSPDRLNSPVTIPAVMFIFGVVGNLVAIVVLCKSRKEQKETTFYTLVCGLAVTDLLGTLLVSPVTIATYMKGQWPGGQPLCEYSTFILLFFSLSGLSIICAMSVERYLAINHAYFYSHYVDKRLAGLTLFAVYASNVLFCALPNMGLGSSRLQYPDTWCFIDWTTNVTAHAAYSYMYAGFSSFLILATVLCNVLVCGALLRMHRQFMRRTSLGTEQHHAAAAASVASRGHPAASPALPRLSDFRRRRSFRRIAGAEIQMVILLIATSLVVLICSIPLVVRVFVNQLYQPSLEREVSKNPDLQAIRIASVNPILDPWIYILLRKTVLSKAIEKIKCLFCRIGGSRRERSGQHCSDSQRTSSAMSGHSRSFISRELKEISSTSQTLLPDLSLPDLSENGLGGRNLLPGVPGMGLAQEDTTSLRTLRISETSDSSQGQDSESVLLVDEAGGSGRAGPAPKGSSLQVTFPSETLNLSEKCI
T17 sequence (Q99720 whole entry): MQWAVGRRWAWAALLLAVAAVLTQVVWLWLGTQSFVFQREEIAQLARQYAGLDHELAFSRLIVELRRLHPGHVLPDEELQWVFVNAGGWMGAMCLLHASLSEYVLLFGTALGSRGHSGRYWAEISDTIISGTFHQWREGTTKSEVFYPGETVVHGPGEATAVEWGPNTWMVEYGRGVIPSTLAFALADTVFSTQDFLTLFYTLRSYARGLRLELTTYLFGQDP
T18 sequence (P14416 1-414 isoform P14416-2): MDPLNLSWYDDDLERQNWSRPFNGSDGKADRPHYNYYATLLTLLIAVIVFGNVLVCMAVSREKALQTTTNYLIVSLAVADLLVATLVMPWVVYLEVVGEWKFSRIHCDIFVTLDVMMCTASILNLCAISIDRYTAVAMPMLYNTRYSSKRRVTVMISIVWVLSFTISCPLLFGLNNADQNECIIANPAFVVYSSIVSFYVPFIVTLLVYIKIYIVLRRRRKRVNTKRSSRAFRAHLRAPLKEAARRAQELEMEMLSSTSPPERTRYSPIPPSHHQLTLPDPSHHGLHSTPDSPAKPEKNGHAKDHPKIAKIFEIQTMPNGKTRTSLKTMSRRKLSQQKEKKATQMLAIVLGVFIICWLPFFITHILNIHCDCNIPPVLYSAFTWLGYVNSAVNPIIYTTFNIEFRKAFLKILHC

Take `Cc1ccc2c(c1)c1c(n2CCc2ccc(C)nc2)CCN(C)C1` [Dimebon, 2,3,4,5-Tetrahydro-2,8-dimethyl-5-(2-(6-methyl-3-pyridyl)ethyl)-1H-pyrido(4,3-b)indole]: the inhibition (usually the drop in the measured response relative to a control, in per cent) at 10 µM amounted to 96% on α1A-Adrenergic receptor; 16% at Opiate kappa (OP2, KOP); 10% on Opiate mu (OP3, MOP); 99% in [1]; 1% on Prostanoid EP4; 3% on Melatonin MT1. In addition, the inhibition at 10 µM at Sigma 2 is 22%; on Tachykinin NK1 it was 20%; on Adenosine A3, 6%; in test [2] it was 4%; at Adrenergic beta2 it was 14%; in test [3] it was -7%. The inhibition at 10 µM at Opiate delta (OP1, DOP) was 0%; on Bradykinin B1 it was -9%; at Serotonin 5-HT1A, 22%; at Serotonin 5-HT2B, 74%; at Sigma 1, 28%; at Dopamine D2S receptor it was 83%. In addition, the inhibition at 10 µM stood at 17% at Serotonin 5-HT4, 48% on Serotonin 5-HT1B and 73% on Dopamine D3.
